Results published in US20100210568A1, “T[…] HORMONE FOR […] APPLICATIONS” (priority 2007, published 2010).

System: drug-resistant Mycobacterium tuberculosis
Conditions: peptide 10 micrograms per ml, seven days

In the case of `NC(=O)[C@@H]1CCCN1C(=O)[C@H](Cc1cnc[nH]1)NC(=O)[C@@H]1CCC(=O)N1` [TRH, Pyr-His-Pro-NH2], the “% inhibition” value is reported as 0.0%.
